Values quoted from earlier work in US20090226374A1, “ANAPHYLATOXINS FOR DETECTING CLINICAL CONDITIONS” (Health Aide, Inc., priority 2003, published 2009).
Read-outs that look alike come from different tables or passages of the source. Marks after values point to notes of the source that are not given here. Where no end group is shown, it is not given here. [ ]: non-standard residue; d: D form. The star is where a group is joined. Fmoc = O=C(OCC1c2ccccc2-c2ccccc21)*; Ahx = NCCCCCC(=O)O

Legend:
guinea pig ileum = conditions: for Relative Act. %: natural human C3a (1-77) = 100; for Relative Act. % / Relative molar activity (%): guinea pig ileum contraction; for Relative molar activity (%): pentapeptide L-G-L-A-R (C3a 73-77) = 100
[1] = assay not given
[2] = natural factor C3a (1-77) = 100
[3] = natural C3a of each species; human C3a = 100
guinea pig platelet = guinea pig platelet aggregation

Substance: A-G-L-A-R [Peptide 7]
- Relative Act. % (guinea pig ileum): <0.001%
- Relative molar activity (%) (guinea pig ileum): 20%

Substance: Ahx-Y-A-S-K-L-G-L-A-R ([Ahx]YASKLGLAR) [Peptide C2]
- Potency relative to C3a (57-77), % ([1]; Table 1E): 13%

Substance: Ahx-Y-S-H-K-G-M-L-L-G-R ([Ahx]YSHKGMLLGR) [Peptide C8]
- Potency relative to C3a (57-77), % ([1]; Table 1E): 0.4%

Substance: C3a (1-77): Natural human C3a anaphylatoxin (1-77), the natural factor
- Relative molar activity (%) [2]: 100%
- Potency % [3]: 100%
- Relative Act. % (guinea pig ileum): 100%

Substance: F-G-L-A-R [Peptide 3]
- Relative Act. % (guinea pig ileum): 1.1%
- Relative molar activity (%) (guinea pig ileum): 140%

Substance: Fmoc-A-A-A-R-L-G-L-A-R (Fmoc-AAARLGLAR) [Peptide D1]
- Potency relative to C3a (57-77), % ([1]; Table 1F): 66%

Substance: Fmoc-A-A-R-A-L-G-L-A-R (Fmoc-AARALGLAR) [Peptide D2]
- Potency relative to C3a (57-77), % ([1]; Table 1F): 41%

Substance: Fmoc-A-R-A-A-L-G-L-A-R (Fmoc-ARAALGLAR) [Peptide D3]
- Potency relative to C3a (57-77), % ([1]; Table 1F): 37%

Substance: Fmoc-Ahx-Y-A-S-K-L-G-L-A-R ({Fmoc-Ahx}-YASKLGLAR) [Peptide C3]
- Potency relative to C3a (57-77), % ([1]; Table 1E): 22%

Substance: Fmoc-Ahx-Y-R-A-S-K-L-G-L-A-R ({Fmoc-Ahx}-YRASKLGLAR) [Peptide C5]
- Potency relative to C3a (57-77), % ([1]; Table 1E): 112%
- Potency relative to C3a (57-77), % ([1]; Table 1F): 112%

Substance: Fmoc-Ahx-Y-S-H-K-G-M-L-L-G-R ({Fmoc-Ahx}-YSHKGMLLGR) [Peptide C9]
- Potency relative to C3a (57-77), % ([1]; Table 1E): 0.8%

Substance: Fmoc-G-G-Y-R-A-S-K-L-G-L-A-R (Fmoc-GGYRASKLGLAR) [Peptide D8]
- Potency relative to C3a (57-77), % ([1]; Table 1F): 227%

Substance: Fmoc-I-R-R--R-Y-A-S-K-L-G-L-A-R (Fmoc-IRRRYASKLGLAR) [Peptide B18]
- Potency relative to C3a (57-77), % (guinea pig platelet): 50%

Substance: Fmoc-K-K-Y-R-A-S-K-L-G-L-A-R (Fmoc-KKYRASKLGLAR) [Peptide D7]
- Potency relative to C3a (57-77), % ([1]; Table 1F): 279%

Substance: Fmoc-R-A-A-A-L-G-L-A-R (Fmoc-RAAALGLAR) [Peptide D4]
- Potency relative to C3a (57-77), % ([1]; Table 1F): 79%

Substance: Fmoc-R-A-A-R-L-G-L-A-R (Fmoc-RAARLGLAR) [Peptide D5]
- Potency relative to C3a (57-77), % ([1]; Table 1F): 61%

Substance: Fmoc-R-R-R-Y-A-S-K-L-G-L-A-R (Fmoc-RRRYASKLGLAR) [Peptide B17]
- Potency relative to C3a (57-77), % (guinea pig platelet): 261%

Substance: Fmoc-R-R-Y-R-A-S-K-L-G-L-A-R (Fmoc-RRYRASKLGLAR) [Peptide D6]
- Potency relative to C3a (57-77), % ([1]; Table 1F): 176%

Substance: Fmoc-W-W-R-R-R-Y-A-S-K-L-G-L-A-R (Fmoc-WWRRRYASKLGLAR) [Peptide B19]
- Potency relative to C3a (57-77), % (guinea pig platelet): 53%

Substance: Fmoc-Y-R-A-S-K-L-G-L-A-R (Fmoc-YRASKLGLAR) [Peptide B4]
- Potency relative to C3a (57-77), % (guinea pig platelet): 121%

Substance: FmocW-R-R-R-Y-A-S-K-L-G-L-A-R (Fmoc-WRRRYASKLGLAR) [Peptide B20]
- Potency relative to C3a (57-77), % (guinea pig platelet): 70%

Substance: G-I-G-G-Y-R-K-S-A-L-G-L-A-R (GIGGYRKSALGLAR) [Peptide B10]
- Potency relative to C3a (57-77), % (guinea pig platelet): 41%

Substance: H-Ala-Ser-His-Leu-Gly-Leu-Ala-Arg-OH (H-ASHLGLAR-OH) [C3a-(70-77)]
- Relative molar activity (%) [2]: 2.0%

Substance: H-Arg-Gln-His-Ala-Arg-Ala-Ser-His-Leu-Gly-Leu-Ala-Arg-OH (H-RQHARASHLGLAR-OH) [C3a-(65-77)]
- Relative molar activity (%) [2]: 2.5%

Substance: H-Cys-Asn-Tyr-Ile-Thr-Glu-Leu-Arg-Arg-Gln-His-Ala-Arg-Ala-Ser-His-Leu-Gly-Leu-Ala-Arg-OH (H-CNYITELRRQHARASHLGLAR-OH) [C3a-(57-77)]
- Relative molar activity (%) [2]: >20* %

Substance: H-Trp-Trp-Gly-Lys-Lys-Tyr-Arg-Ala-Ser-Lys-Leu-Gly-Leu-Ala-Arg-OH (H-WWGKKYRASKLGLAR-OH) [Peptide E7]
- Relative molar activity (%) [2]: >100** %

Substance: I-G-G-G-Y-R-K-S-A-L-G-L-A-R (IGGGYRKSALGLAR) [Peptide B11]
- Potency relative to C3a (57-77), % (guinea pig platelet): 16%

Substance: I-G-L-A-R [Peptide 4]
- Relative Act. % (guinea pig ileum): 0.8%
- Relative molar activity (%) (guinea pig ileum): 100%

Substance: I-I-G-G-Y-R-A-S-K-L-G-L-A-R (IIGGYRASKLGLAR) [Peptide B8]
- Potency relative to C3a (57-77), % (guinea pig platelet): 50%

Substance: I-I-G-G-Y-R-K-S-A-L-G-L-A-R (IIGGYRKSALGLAR) [Peptide B9]
- Potency relative to C3a (57-77), % (guinea pig platelet): 37%

Substance: I-R-R-R-Y-A-S-K-L-G-L-A-R (IRRRYASKLGLAR) [Peptide B15]
- Potency relative to C3a (57-77), % (guinea pig platelet): 99%

Substance: L-A-L-A-R [Peptide 8]
- Relative Act. % (guinea pig ileum): 0.59%
- Relative molar activity (%) (guinea pig ileum): 270%

Substance: L-E-L-A-R [Peptide 13]
- Relative Act. % (guinea pig ileum): 2.0%
- Relative molar activity (%) (guinea pig ileum): <2.4%

Substance: L-G-A-A-R [Peptide Code 12]
- Relative molar activity (%) (guinea pig ileum): <1.4%

Substance: L-G-F-A-R [Peptide 16]
- Relative Act. % (guinea pig ileum): 1.0%
- Relative molar activity (%) (guinea pig ileum): <1.5%

Substance: L-G-I-A-R [Peptide 14]
- Relative Act. % (guinea pig ileum): 0.8%
- Relative molar activity (%) (guinea pig ileum): 10%

Substance: L-G-L-A-R (LGLAR) [Peptide Code 5]
- Potency relative to C3a (57-77), % (guinea pig ileum; asterisk: based on guinea pig ileal assay): 0.2* %
- Relative Act. % (guinea pig ileum): 5.9%
- Relative molar activity (%) (guinea pig ileum): 100%

Substance: L-G-L-E-R [Peptide 23]
- Relative molar activity (%) (guinea pig ileum): <2.6%

Substance: L-G-L-G-R [Peptide 22]
- Relative molar activity (%) (guinea pig ileum): <5.8%

Substance: L-G-L-P-R [Peptide 19]
- Relative molar activity (%) (guinea pig ileum): 3.5%

Substance: L-G-L-Q-R [Peptide 20]
- Relative molar activity (%) (guinea pig ileum): 2.8%

Substance: L-G-L-S-R [Peptide 21]
- Relative molar activity (%) (guinea pig ileum): 0.7%

Substance: L-G-M-A-R [Peptide 15]
- Relative Act. % (guinea pig ileum): 0.25%
- Relative molar activity (%) (guinea pig ileum): 2.1%

Substance: L-G-V-A-R [Peptide 17]
- Relative Act. % (guinea pig ileum): <0.005%
- Relative molar activity (%) (guinea pig ileum): <1.1%

Substance: L-L-L-A-R [Peptide 11]
- Relative Act. % (guinea pig ileum): 0.023%
- Relative molar activity (%) (guinea pig ileum): 10%

Substance: L-Q-L-A-R [Peptide 12]
- Relative Act. % (guinea pig ileum): <0.003%
- Relative molar activity (%) (guinea pig ileum): <5.5%

Substance: L-S-L-A-R [Peptide 9]
- Relative Act. % (guinea pig ileum): 2.0%
- Relative molar activity (%) (guinea pig ileum): 55%

Substance: L-V-L-A-R [Peptide 10]
- Relative Act. % (guinea pig ileum): 1.2%
- Relative molar activity (%) (guinea pig ileum): 10%

Substance: M-G-L-A-R [Peptide 6]
- Relative Act. % (guinea pig ileum): 0.005%
- Relative molar activity (%) (guinea pig ileum): 50%

Substance: R-R-R-Y-A-S-K-L-G-L-A-R (RRRYASKLGLAR) [Peptide B13]
- Potency relative to C3a (57-77), % (guinea pig platelet): 50%

Substance: R-R-Y-A-S-K-L-G-L-A-R (RRYASKLGLAR) [Peptide B12]
- Potency relative to C3a (57-77), % (guinea pig platelet): 18%

Substance: R-Y-A-S-K-L-G-L-A-R (RYASKLGLAR) [Peptide B2]
- Potency relative to C3a (57-77), % (guinea pig platelet): 7.0%

Substance: V-G-L-A-R [Peptide 5]
- Relative Act. % (guinea pig ileum): 0.2%
- Relative molar activity (%) (guinea pig ileum): 90%

Substance: W-Ahx-Y-A-S-K-L-G-L-A-R (W[Ahx]YASKLGLAR) [Peptide C4]
- Potency relative to C3a (57-77), % ([1]; Table 1E): 22%

Substance: W-Ahx-Y-S-H-K-G-M-L-L-G-R (W[Ahx]YSHKGMLLGR) [Peptide C10]
- Potency relative to C3a (57-77), % ([1]; Table 1E): 1.2%

Substance: W-G-G-Y-R-A-S-K-L-G-L-A-R (WGGYRASKLGLAR) [Peptide B5]
- Potency relative to C3a (57-77), % (guinea pig platelet): 99%

Substance: W-I-G-G-Y-R-A-S-K-L-G-L-A-R (WIGGYRASKLGLAR) [Peptide B7]
- Potency relative to C3a (57-77), % (guinea pig platelet): 118%

Substance: W-R-R-R-Y-A-S-K-L-G-L-A-R (WRRRYASKLGLAR) [Peptide B14]
- Potency relative to C3a (57-77), % (guinea pig platelet): 66%

Substance: W-W-Ahx-Y-R-A-S-K-L-G-L-A-R (WW[Ahx]YRASKLGLAR) [Peptide C6]
- Potency relative to C3a (57-77), % ([1]; Table 1E): 603%

Substance: W-W-G-G-Y-R-A-S-A-L-G-L-A-R (WWGGYRASALGLAR) [Peptide D10]
- Potency relative to C3a (57-77), % ([1]; Table 1F): 181%

Substance: W-W-G-G-Y-R-A-S-K-L-G-L-A-R (WWGGYRASKLGLAR) [Peptide B6]
- Potency relative to C3a (57-77), % (guinea pig platelet): 259%

Substance: W-W-G-G-Y-R-K-S-A-L-G-L-A-R (WWGGYRKSALGLAR) [Peptide D11]
- Potency relative to C3a (57-77), % ([1]; Table 1F): 259%

Substance: W-W-G-G-Y-R-P-S-A-L-G-L-A-R (WWGGYRPSALGLAR) [Peptide D12]
- Potency relative to C3a (57-77), % ([1]; Table 1F): 252%

Substance: W-W-G-G-Y-R-a-S-A-L-G-L-A-R (WWGGYR[dA]SALGLAR) [Peptide D13]
- Potency relative to C3a (57-77), % ([1]; Table 1F): 118%

Substance: W-W-R-R-R-Y-A-S-K-L-G-L-A-R (WWRRRYASKLGLAR) [Peptide B16]
- Potency relative to C3a (57-77), % (guinea pig platelet): 296%

Substance: Y-A-S-K-L-G-L-A-R (YASKLGLAR) [Peptide C1]
- Potency relative to C3a (57-77), % ([1]; Table 1E): 3.4%

Substance: Y-G-L-A-R [Peptide 2]
- Relative Act. % (guinea pig ileum): 2.3%
- Relative molar activity (%) (guinea pig ileum): 160%

Substance: Y-R-A-S-K-L-G-L-A-R (YRASKLGLAR) [Peptide B3]
- Potency relative to C3a (57-77), % (guinea pig platelet): 55%

Substance: Y-S-H-K-G-M-L-L-G-R (YSHKGMLLGR) [Peptide C7]
- Potency relative to C3a (57-77), % ([1]; Table 1E): 0.5%
